Results as given in publication PMC10840179, “Chemical and biological characterization of Melaleuca subulata (Cheel) Craven leaves’ volatile constituents supported by chemometric analysis and molecular docking” (BMC Complementary Medicine and Therapies, 2024).
≈ marks a conversion by molar mass, not a printed value.

Target: T1, collagenase
T1 construct: gene colG; docking used another collagenase (printed PDB 465C / 456C)
Assay: FALGPA hydrolysis, ninhydrin, absorbance at […] nm
Assay type: biochemical
Settings: FALGPA substrate, 50 mM tricine, 37 °C, 20 min preincubation; metal chelator

O=C(O)CN(CCN(CC(=O)O)CC(=O)O)CC(=O)O [EDTA]
IC50 ± SD (% inhibition ± SD) / Anti-collagenase: 315.12 ± 2.21 µg/mL (≈ 1080 µM)
